Laboratory results published in article PMC10392058 (FEBS Open Bio, 2023).

Legend:
[1] = MDCKII bidirectional permeability, mock transfected cells; format: in vitro ADME; settings: dog, MDCK
[2] = molecular target: T1, BCRP (Homo sapiens, UniProt Q9UNQ0); test: MDCKII bidirectional permeability, BCRP expressing cells; settings: dog
T1 sequence (Q9UNQ0 1-655): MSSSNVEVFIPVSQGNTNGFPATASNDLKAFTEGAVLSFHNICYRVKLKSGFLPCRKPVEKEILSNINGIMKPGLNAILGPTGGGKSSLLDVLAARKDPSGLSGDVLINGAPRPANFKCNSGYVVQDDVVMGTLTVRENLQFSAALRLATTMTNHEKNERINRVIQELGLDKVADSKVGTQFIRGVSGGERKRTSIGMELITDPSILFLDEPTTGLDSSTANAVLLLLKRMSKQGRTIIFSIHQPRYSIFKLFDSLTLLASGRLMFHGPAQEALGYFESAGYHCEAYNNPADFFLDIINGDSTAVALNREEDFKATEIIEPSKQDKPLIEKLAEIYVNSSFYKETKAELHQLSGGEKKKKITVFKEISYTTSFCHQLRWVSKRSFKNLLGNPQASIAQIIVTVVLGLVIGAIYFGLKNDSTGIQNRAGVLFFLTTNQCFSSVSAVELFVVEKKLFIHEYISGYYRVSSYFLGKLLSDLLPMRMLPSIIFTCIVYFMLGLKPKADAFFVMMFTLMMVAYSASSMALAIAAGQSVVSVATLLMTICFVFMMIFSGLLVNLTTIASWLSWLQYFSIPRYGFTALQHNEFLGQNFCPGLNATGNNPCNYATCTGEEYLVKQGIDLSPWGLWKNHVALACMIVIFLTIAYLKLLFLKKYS

[3] = tested on: HXA3/MRP2‐driven neutrophil epithelial transmigration; test: HXA3/MRP2‐driven neutrophil transmigration assay (S. typhimurium‐stimulated T84 monolayer, MPO readout); format: cell-based, human; settings: 100 μM probenecid (positive control); P = 0.0008
Method: As described under Materials and Methods, in the neutrophil transmigration assay, a polarized human intestinal cell line monolayer was grown on a transwell insert to mimic the intestinal epithelial barrier. The cells were then apically stimulated by the addition of pathogenic Salmonella typhimurium, eliciting HXA3 efflux via MRP2 into the apical side of the chamber. Fresh, unstimulated human neutrophils were added to the basolateral side of the monolayer, where they detected the HXA3 gradient and migrated through the epithelial monolayer to the apical side. They were then quantified by assay of myeloperoxidase (MPO), a neutrophil biomarker.
Following stimulation via pathogenic S. typhimurium to elicit HXA3 efflux, migration of fresh human neutrophils from the basolateral side of the polarized monolayer (in response to the HXA3 gradient) to the apical side was quantified by MPO activity assay. […]
In the neutrophil transmigration assay (a modified Boyden chamber assay), a polarized T84 human intestinal cell line monolayer was grown on a Transwell insert to mimic the intestinal epithelial barrier. […] Fresh human neutrophils, added to the basolateral side of the monolayer, detected the HXA3 gradient and migrated through the epithelial monolayer to the apical side, where they were quantified by assay of MPO activity, a neutrophil biomarker [47].

[4] = tested on: HXA3 release; set-up: method as in PMID 19017997; settings: 100 μM; cited from earlier work
[5] = tested on: MDCKII‐mock‐LV cells; test: MDCKII bidirectional permeability, mock transfected cells; format: in vitro ADME
[6] = molecular target: T2, MDCKII‐BCRP‐LV cells (Homo sapiens, UniProt Q9UNQ0); test: MDCKII bidirectional permeability, BCRP expressing cells
T2 sequence (Q9UNQ0 1-655): T1 sequence (Q9UNQ0 1-655)

Compound `COc1cc2nc(N3CCN(C(=O)c4ccco4)CC3)nc(N)c2cc1OC` [Prazosin] has a Papp A→B at 1 μM [1] of 14.7 ± 13.3 ×10⁻⁶ cm/s, a Papp A→B at 1 μM [2] of 3.02 ± 0.84 ×10⁻⁶ cm/s and a Papp B→A at 1 μM [2] of 53.1 ± 8.15 ×10⁻⁶ cm/s.
For `CCCN(CCC)S(=O)(=O)c1ccc(C(=O)O)cc1` [probenecid], the neutrophil migration inhibition [3] is listed as “extremely significant” and the “inhibition of HXA3 release” value [4] is listed as “effectively inhibits HXA3 release”.
With Lucifer yellow [LY] the “Papp A‐B” value ([5]; LY 40 μg·mL^−1) was 0.20 ± 0.03 × 10^−6 cm·s^−1, the “Papp A‐B” value ([5]; LY 40 μg·mL^−1 + ADS051 14 mg·mL^−1 (TA applied apically)) was 0.32 ± 0.09 × 10^−6 cm·s^−1 and the “Papp A‐B” value ([5]; LY 40 μg·mL^−1 + ADS051 14 mg·mL^−1 (TA applied basolaterally)) was 0.46 ± 0.09 × 10^−6 cm·s^−1. The “Papp A‐B” value ([6]; LY 40 μg mL^−1) was 0.06 ± 0.01 × 10^−6 cm·s^−1, the “Papp A‐B” value ([6]; LY 40 μg mL^−1 + ADS051 14 mg mL^−1 (TA applied apically)) was 0.21 ± 0.02 × 10^−6 cm·s^−1 and the “Papp A‐B” value ([6]; LY 40 μg mL^−1 + ADS051 14 mg mL^−1 (TA applied basolaterally)) was 0.19 ± 0.01 × 10^−6 cm·s^−1.
